The values that follow come from PubChem BioAssay (NCI).

“And” between values parts separate entries of the source, which are not always exact repeats. Identical values can stand only once.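 The compound was tested at five concentrations on cells cultured in 96-well plates, with a 48-hour exposure period. GI50 is the concentration that inhibits growth by half. TGI marks complete inhibition of growth.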 Bounds are passed on as bounds.

Common to all, as to test: inhibition of tumour cell growth, NCI panel, 48 h
Test [1] has as its system CCRF-CEM leukemia.
Test [2] has as its system HCT-15 colon.
The test system of test [3] is IGROV1 ovarian.
The test system of test [4] is MCF7 breast.
For test [5], the system named is OVCAR-3 ovarian.
The subject of test [6] is SF-268 CNS.
Test [7] deals with SF-295 CNS.
Test [8] has as its system UO-31 renal.
Test [9] concerns MDA-MB-435.
Test [10] relates to PC-3 prostate.

Turning to `Cc1c2c(cc3c1[nH]c1ccccc13)C(c1ccc(F)cc1)=NCC2`, the TGI was 7.2 µM in [1]; 12.4 µM in test [2]; 3.73 µM in test [3]; 7.78 µM in test [4]; 2.93 µM in test [5]; 19.6 µM in test [6]. For the same compound, the values for the TGI in test [7] and in test [8] were 2.45 µM and 4.08 µM, respectively.
Turning to `OC(c1ccc(-c2ccccc2)cc1)(c1ccc(-c2ccccc2)cc1)c1ccc(-c2ccccc2)cc1`, the TGI in test [2], in test [3], in [4], in [9], in test [5] and in test [10] was over 100 µM throughout. The TGI in test [6], in [7] and in test [8] was over 100 µM each time.
In the case of `O=C1CS(=O)(=O)C(c2cccc(Oc3ccccc3)c2)N1c1cccc(Cl)c1Cl` (centres undefined), the TGI is over 100 µM in [1]; 21.2 µM in test [4]; 48.8 µM in test [9]; 57.3 µM in [5]; 89.9 µM in test [10]; 55.2 µM in [6]. Further, the TGI in [7] and in test [8] was over 100 µM in each case.
With `CCN(CC)/C(=C\Cl)Nc1ccccn1`, the TGI in [1], in test [2], in test [3], in test [5], in [6] and in test [7] was over 100 µM in each case. In addition, the TGI in test [8] was over 100 µM.
Consider `C=CCOCCCC(=O)C(=[N+]=[N-])C(=O)OC`, for which the TGI in test [1], in [2], in test [3], in [5], in [6] and in test [7] was over 100 µM each time. For the same compound, the TGI in test [8] is over 100 µM.
With `Cc1c(Cl)c(=O)oc2cc(OCC(=O)c3ccccc3)ccc12`, the TGI in [1], in test [2], in test [3], in test [4], in test [9] and in test [5] was over 100 µM in each case. Besides, the TGI in [10], in test [6], in [7] and in [8] was over 100 µM in each case.
With `CC(=O)C1(c2ccccc2)CCCN(C)CC1` (centres undefined), the TGI in [1], in test [2], in test [3], in test [4], in test [9] and in test [5] was over 100 µM throughout. For the same compound, the TGI in test [10], in test [7] and in test [8] was over 100 µM in each case.
As to `CN(C)CCNc1c([N+](=O)[O-])cc2c3c(cccc13)C(=O)N(CCN(C)C)C2=O`, the TGI in test [1] is over 100 µM; in [2], 5.54 µM; in test [3], 8.17 µM; in [4], over 20.4 µM; in test [5], 5.44 µM; in test [6] it was 4.6 µM. Also, the figures for the TGI in [7] and in test [8] were 6.69 µM and 4.2 µM, respectively.
As to `COc1nc(C#CCCCC#N)nc(OC)n1`, the TGI in test [2] came out at 18.3 µM; in [3], 41.8 µM; in test [4], 22.1 µM; in test [9], 27.7 µM; in test [5] it was 28 µM; in test [10], 30.9 µM. For the same compound, the TGI in [6] was determined as 94.4 µM; in test [7] it was 84.6 µM; in test [8], 24.9 µM.
Regarding `CN1CCN(CCCOc2ccc3ncnc(Nc4ccc(Oc5cccc(C(F)(F)F)c5)c(Cl)c4)c3c2)CC1`, the GI50 in [1] is 2.32 µM; in [2], 1.33 µM; in test [3] it was 0.908 µM; in test [4] it was 1.38 µM; in test [9] it was 1.53 µM; in [5], 1.09 µM. The GI50 in [10] was 1.71 µM; in [6], 1.44 µM; in [7], 1.66 µM; in test [8], 1.21 µM. Moreover, the TGI in test [1] is 7.46 µM; in [2] it was 2.88 µM; in [3], 2.43 µM; in test [4], 3.06 µM; in [9], 3.09 µM; in test [5] it was 2.56 µM. The TGI in [10] was determined as 3.91 µM; in test [6], 3.12 µM; in test [7], 3.13 µM; in test [8] it was 2.44 µM.
Consider `CCCCC1Cc2cc(OC)ccc2-c2nc3cc(OC)ccc3n21` (centres undefined) (tested in a mixture with another compound), for which the TGI in test [1] came to 34.1 µM; in test [2], 11.3 µM; in [3], 23.1 µM; in [4], 33.5 µM; in test [9], 26.3 µM; in test [5], 29.8 µM. Besides, the TGI in test [10] was 24.7 µM; in test [6] it was 33.5 µM; in test [8] it was 24.7 µM.
Consider `Cc1c(N)nc([C@H](CC(N)=O)NC[C@H](N)C(N)=O)nc1C(=O)N[C@H](C(=O)N[C@H](C)[C@@H](O)[C@H](C)C(=O)N[C@H](C(=O)NCCc1nc(-c2nc(C(=O)NCCC[S+](C)C)cs2)cs1)[C@@H](C)O)C(OC1OC(CO)C(O)C(O)C1OC1OC(CO)C(O)C(OC(N)=O)C1O)c1cnc[nH]1` (some centres undefined), for which the TGI was 25 µM [middle of 4 runs] in test [1]; 29 µM [middle of 4 runs] in test [2]; 22.9 µM and 29 µM and 33.6 µM in test [3]; 22.5 µM and 25 µM and > 100 µM in test [4]; 25 µM and > 100 µM in [9]; 29 µM [middle of 4 runs] in test [5]. Moreover, in test [10], the TGI was 25 µM and > 100 µM. Besides, the GI50 in [3] is 6.89 µM and 1.22 µM; in test [4], 1.71 µM and 3.16 µM; in [9] it was 25.3 µM; in test [10], 2.63 µM and 5.22 µM.
For the compound `COc1ccc(/C=c2/[nH]c(=O)/c(=C\c3ccc(OCc4ccccc4)cn3)[nH]c2=O)cc1`, the TGI in [1], in [2], in test [4], in test [9], in [5] and in [10] was over 100 µM in each case. Also, the TGI in [6], in [7] and in test [8] was over 100 µM in each case.
